In the CheMixHub viscosity set:

Test: xn = mol fraction of the nth substance listed

C1CCOC1 + C1CCCCC1
Details	viscosity [mPa·s]
298.15 K, 101.3 kPa, x2 = 0.1002	0.4906
298.15 K, 101.3 kPa, x2 = 0.1973	0.5151
298.15 K, 101.3 kPa, x2 = 0.2946	0.5406
298.15 K, 101.3 kPa, x2 = 0.3963	0.5689
298.15 K, 101.3 kPa, x2 = 0.5012	0.6048
298.15 K, 101.3 kPa, x2 = 0.5961	0.6424
298.15 K, 101.3 kPa, x2 = 0.7009	0.6906
298.15 K, 101.3 kPa, x2 = 0.906	0.8152
303.15 K, 101.33 kPa, x1 = 0.0954	0.751
303.15 K, 101.33 kPa, x1 = 0.1961	0.691
303.15 K, 101.33 kPa, x1 = 0.3067	0.639
303.15 K, 101.33 kPa, x1 = 0.4023	0.6
303.15 K, 101.33 kPa, x1 = 0.5059	0.562
303.15 K, 101.33 kPa, x1 = 0.6054	0.533
303.15 K, 101.33 kPa, x1 = 0.704	0.505
303.15 K, 101.33 kPa, x1 = 0.8065	0.478
303.15 K, 101.33 kPa, x1 = 0.8987	0.457
313.15 K, 101.3 kPa, x2 = 0.1002	0.4186
313.15 K, 101.3 kPa, x2 = 0.1973	0.4356
313.15 K, 101.3 kPa, x2 = 0.2946	0.4542
313.15 K, 101.3 kPa, x2 = 0.3963	0.4773
313.15 K, 101.3 kPa, x2 = 0.5012	0.5037
313.15 K, 101.3 kPa, x2 = 0.5961	0.5305
313.15 K, 101.3 kPa, x2 = 0.7009	0.5648
313.15 K, 101.3 kPa, x2 = 0.906	0.6505

CC(C)=O + C1CCCCC1
viscosity [mPa·s], 101.33 kPa
Details	293.15 K	298.15 K	303.15 K	307.35 K
x1 = 0.091	–	–	–	0.662
x1 = 0.3116	–	–	–	0.512
x1 = 0.3949	–	–	–	0.461
x1 = 0.4589	–	–	–	0.431
x1 = 0.5299	–	–	–	0.402
x1 = 0.7897	–	–	–	0.323
x2 = 0.049	0.329	0.313	0.299	–
x2 = 0.0917	0.336	0.32	0.305	–
x2 = 0.1959	0.361	0.343	0.326	–
x2 = 0.2889	0.392	0.371	0.352	–
x2 = 0.4092	0.443	0.417	0.394	–
x2 = 0.5009	0.486	0.456	0.429	–
x2 = 0.5984	0.544	0.509	0.477	–
x2 = 0.7007	0.621	0.578	0.54	–
x2 = 0.8046	0.7	0.65	0.606	–
x2 = 0.9051	0.818	0.756	0.701	–
x2 = 0.958	0.895	0.829	0.762	–

CCCc1ccccc1 + C1CCCCC1
303.15 K, 101 kPa
Details	viscosity [mPa·s]
x2 = 0.1018	0.7449
x2 = 0.2046	0.7318
x2 = 0.3024	0.7218
x2 = 0.3975	0.7149
x2 = 0.5018	0.7144
x2 = 0.6007	0.716
x2 = 0.6984	0.7272
x2 = 0.7974	0.749
x2 = 0.9039	0.7828

COc1ccccc1 + C1CCCCC1
viscosity [mPa·s]
Details	298.15 K	303.15 K	308.15 K	313.15 K
101 kPa, x1 = 0.1016	0.8187	0.7586	0.7009	0.6496
101 kPa, x1 = 0.1993	0.7856	0.7308	0.68	0.6314
101 kPa, x1 = 0.3005	0.77	0.7174	0.668	0.6223
101 kPa, x1 = 0.3997	0.7696	0.7169	0.6674	0.6228
101 kPa, x1 = 0.5014	0.7849	0.7317	0.6829	0.637
101 kPa, x1 = 0.6014	0.803	0.7509	0.7001	0.6546
101 kPa, x1 = 0.7043	0.8378	0.7843	0.7318	0.6823
101 kPa, x1 = 0.8	0.8834	0.8216	0.7693	0.7163
101 kPa, x1 = 0.8992	0.9338	0.87	0.8092	0.7511
101.3 kPa, x1 = 0.0224	–	0.799	–	–
101.3 kPa, x1 = 0.0385	–	0.783	–	–
101.3 kPa, x1 = 0.0614	–	0.773	–	–
101.3 kPa, x1 = 0.4829	–	0.708	–	–
101.3 kPa, x1 = 0.5172	–	0.714	–	–
101.3 kPa, x1 = 0.5409	–	0.72	–	–
101.3 kPa, x1 = 0.5731	–	0.729	–	–
101.3 kPa, x1 = 0.7744	–	0.792	–	–
101.3 kPa, x1 = 0.8952	–	0.846	–	–
101.3 kPa, x1 = 0.9478	–	0.884	–	–

CC1COC(=O)O1 (stereo not given) + C1CCOC1
viscosity [mPa·s]
Details	298.15 K	308.15 K	318.15 K
101 kPa, x2 = 0.2	1.7	–	–
101 kPa, x2 = 0.6	0.862	–	–
101.33 kPa, x2 = 0.0524	2.227	1.858	1.589
101.33 kPa, x2 = 0.1036	2.023	1.709	1.459
101.33 kPa, x2 = 0.1429	1.87	1.598	1.373
101.33 kPa, x2 = 0.2064	1.674	1.432	1.239
101.33 kPa, x2 = 0.2431	1.567	1.351	1.167
101.33 kPa, x2 = 0.3083	1.393	1.208	1.057
101.33 kPa, x2 = 0.3478	1.303	1.133	0.992
101.33 kPa, x2 = 0.4095	1.171	1.025	–
101.33 kPa, x2 = 0.5098	–	0.8753	0.7782
101.33 kPa, x2 = 0.5621	–	0.8044	0.7222
101.33 kPa, x2 = 0.6094	0.8417	0.7503	0.6719
101.33 kPa, x2 = 0.6479	0.7836	0.7016	0.6343
101.33 kPa, x2 = 0.7082	0.7171	0.6445	0.5827
101.33 kPa, x2 = 0.7635	0.6549	0.596	–
101.33 kPa, x2 = 0.8062	0.6195	–	0.5098
101.33 kPa, x2 = 0.8388	0.5831	0.5361	0.4805
101.33 kPa, x2 = 0.9035	0.5357	0.4872	0.4425
101.33 kPa, x2 = 0.9631	0.485	0.4449	0.404

CCCc1ccccc1 + C1CCOC1
303.15 K, 101.33 kPa
Details	viscosity [mPa·s]
x2 = 0.1005	0.732
x2 = 0.199	0.709
x2 = 0.3031	0.682
x2 = 0.4019	0.656
x2 = 0.4983	0.63
x2 = 0.6024	0.596
x2 = 0.7022	0.561
x2 = 0.8014	0.525
x2 = 0.8964	0.485

C1CCOC1 + C1COCCO1
Details	viscosity [mPa·s]
298.15 K, 101 kPa, x2 = 0.5	0.6797

CC1COC(=O)O1 (stereo not given) + C1COCCO1
303.15 K, 101.3 kPa
Details	viscosity [mPa·s]
x1 = 0.1007	1.1
x1 = 0.2012	1.184
x1 = 0.3015	1.273
x1 = 0.4017	1.369
x1 = 0.5017	1.472
x1 = 0.6015	1.582
x1 = 0.7018	1.706
x1 = 0.8014	1.844
x1 = 0.9008	1.992

CCCc1ccccc1 + C1COCCO1
303.15 K, 101.3 kPa
Details	viscosity [mPa·s]
x2 = 0.1061	0.7763
x2 = 0.1984	0.8007
x2 = 0.2968	0.8298
x2 = 0.399	0.8589
x2 = 0.4945	0.8922
x2 = 0.5985	0.9278
x2 = 0.7003	0.9648
x2 = 0.8026	1.005
x2 = 0.9025	1.045

COc1ccccc1 + C1COCCO1
viscosity [mPa·s]
Details	293.15 K	298.15 K	303.15 K	308.15 K	313.15 K	323.15 K
101 kPa, x1 = 0.0973	–	1.154	1.063	0.9679	0.9021	–
101 kPa, x1 = 0.1993	–	1.136	1.04	0.9633	0.8956	–
101 kPa, x1 = 0.3019	–	1.105	1.021	0.9435	0.8729	–
101 kPa, x1 = 0.4003	–	1.094	1.011	0.9342	0.8659	–
101 kPa, x1 = 0.4999	–	–	–	0.9209	0.854	–
101 kPa, x1 = 0.5976	–	1.06	0.983	0.9122	0.8465	–
101 kPa, x1 = 0.7024	–	–	0.9723	0.9001	0.8338	–
101 kPa, x1 = 0.7992	–	–	0.9564	0.8957	0.8226	–
101 kPa, x1 = 0.9003	–	1.019	0.9451	0.8765	0.8129	–
101.3 kPa, x1 = 0.1191	1.251	–	1.062	–	0.916	0.799
101.3 kPa, x1 = 0.2422	1.218	–	1.037	–	0.898	0.785
101.3 kPa, x1 = 0.3646	1.223	–	1.014	–	0.879	0.77
101.3 kPa, x1 = 0.4786	1.195	–	1.018	–	0.882	0.76
101.3 kPa, x1 = 0.6021	1.16	–	0.981	–	0.853	0.749
101.3 kPa, x1 = 0.7164	1.125	–	0.965	–	0.84	0.738
101.3 kPa, x1 = 0.8783	1.099	–	0.943	–	0.822	0.724

COc1ccccc1 + CC1COC(=O)O1
viscosity [mPa·s], 101.33 kPa
Details	x2 = 0.0794	x2 = 0.1323	x2 = 0.2487	x2 = 0.3578	x2 = 0.4971	x2 = 0.5795	x2 = 0.6669	x2 = 0.7278	x2 = 0.835	x2 = 0.9009
293.15 K	1.142	1.199	1.316	1.449	1.64	1.773	1.917	2.031	2.246	2.406
303.15 K	0.971	1.013	1.101	1.212	1.372	1.479	1.591	1.682	1.851	1.978
313.15 K	0.849	0.889	0.972	1.066	1.177	1.26	1.347	1.423	1.569	1.671

C1CCOC1 + CC#N
viscosity [mPa·s], 101 kPa
Details	x2 = 0.1633	x2 = 0.3052	x2 = 0.4295	x2 = 0.5394	x2 = 0.6372	x2 = 0.7249	x2 = 0.8039	x2 = 0.8754	x2 = 0.9405
298.15 K	0.4419	0.4236	0.4075	0.3932	0.3808	0.3701	0.3611	0.3539	0.3481
308.15 K	0.4066	0.3875	0.3701	0.355	0.3425	0.3321	0.3242	0.3184	0.3145
318.15 K	0.3683	0.3497	0.334	0.3202	0.3089	0.3001	0.2938	0.2901	0.2879
